Laboratory results as given in US20250197389A1, “NITROGEN-CONTAINING HETEROCYCLIC COMPOUND” (SHANGHAI SHIJIANG BIOTECHNOLOGY CO., LTD, priority 2022, published 2025).

What was measured:
mPTP-active Daoy cell = assay: Inhibitory effect on mPTP-active Daoy cell (Promega CellTiter-Glo, intracellular ATP); assay type: cell-based, human; details: Daoy cell transfected with empty virus vector without PPIF shRNA
mPTP-inactive Daoy cell = assay: Inhibitory effect on mPTP-inactive Daoy cell (PPIF shRNA; Promega CellTiter-Glo, intracellular ATP); assay type: cell-based, human; details: Daoy cell transfected with virus vector carrying PPIF shRNA
From the text: The activity of mitochondria permeability transition pore (mPTP) was regulated by the PPIF protein. […] PPIF protein activity was restricted by the expression level of PPIF protein in cell.

Structure (SMILES) | IC50 (mPTP-active Daoy cell; Homo sapiens, Daoy) [µM] | IC50 (mPTP-inactive Daoy cell; Homo sapiens, Daoy) [µM] | IC50 (mPTP-active Daoy cell) [µM] | IC50 (mPTP-inactive Daoy cell) [µM]
COc1ccc2c(c1Br)CN1CCc3cc4c(cc3C1=C2)OCO4 [AB36460] | 2.71 | 1.27 |  | 
CCCCCCC1=C2c3cc4c(cc3CCN2C(C(Cl)(Cl)Cl)c2c1ccc(OC)c2OC)OCO4 (stereo not shown) [AB35508] | 2.25 | 0.99 |  | 
[2H]C1([2H])c2c(ccc(OC)c2OC)C=C2c3cc4c(cc3CCN21)OCO4 [AB36434] | 2.42 | 1.13 |  | 
COc1ccc2c(c1OC)C(C1CCCC1)N1CCc3cc4c(cc3C1C2)OCO4 (stereo not shown) [AB36497] | 67.4 | 69 |  | 
COc1ccc2c(c1OCCCCOc1ccccc1)C(C1CCCC1)N1CCc3cc4c(cc3C1=C2)OCO4 (stereo not shown) [AB35454] | 2.96 | 1.28 |  | 
COc1ccc2c(c1OCCCF)CN1CCc3cc4c(cc3C1=C2)OCO4 [AB35590] | 4.54 | 1.41 |  | 
COc1ccc2c(c1OC(=O)CC13CC4CC(CC(C4)C1)C3)C(C)N1CCc3cc4c(cc3C1=C2)OCO4 (stereo not shown) [AB31896] | 5.02 | 2.42 |  | 
CCOc1c(OC)ccc2c1C(C(Cl)(Cl)Cl)N1CCc3cc4c(cc3C1=C2)OCO4 (stereo not shown) [AB35499] | 6.45 | 3.15 |  | 
[2H]C1c2c(ccc(OC)c2OC)C=C2c3cc4c(cc3CCN21)OCO4 (stereo not shown) [AB36415] | 2.18 | 1.07 |  | 
COc1ccc2c(c1N1CCC(C)CC1)CN1CCc3cc4c(cc3C1=C2)OCO4 [AB35545] | 0.53 | 0.2 |  | 
COc1ccc2c(c1OC)C(C)N1CCc3cc4c(cc3C1=C2CCc1ccccc1)OCO4 (stereo not shown) [AB35498] | 6.35 | 3.1 |  | 
CCOc1c(OC)ccc2c1CN1CCc3cc4c(cc3C1=C2)OCO4 [AB35594] | 2.66 | 1.1 |  | 
CCCOc1c(OC)ccc2c1C(C(Cl)(Cl)Cl)N1CCc3cc4c(cc3C1=C2)OCO4 (stereo not shown) [AB35506] | 3.45 | 1.49 |  | 
COc1ccc2c(c1OCCCBr)CN1CCc3cc4c(cc3C1=C2)OCO4 [AB35544] | 0.72 | 0.2 |  | 
COc1ccc2c(c1OCCCCl)CN1CCc3cc4c(cc3C1=C2)OCO4 [AB35543] | 1.22 | 0.44 |  | 
COc1ccc2c(c1OC)C(C)N1CCc3cc4c(cc3C1=C2CCCc1ccccc1)OCO4 (stereo not shown) [AB35411] |  |  | 3.51 | 1.78
COc1ccc2c(c1NCCc1ccccc1)C(C)N1CCc3cc4c(cc3C1=C2)OCO4 (stereo not shown) [AB31895] | 3.15 | 1.46 |  | 
COc1ccc2c(c1OC)C(C(Cl)(Cl)Cl)N1CCc3cc4c(cc3C1=C2CCCc1ccccc1)OCCO4 (stereo not shown) [AB35484] | 3.06 | 0.97 |  | 
CCCCCC1=C2c3cc4c(cc3CCN2C(C(Cl)(Cl)Cl)c2c1ccc(OC)c2OC)OCO4 (stereo not shown) [AB35418] | 3.25 | 1.56 |  | 
CCC1=C2c3cc4c(cc3CCN2C(C(Cl)(Cl)Cl)c2c1ccc(OC)c2OC)OCO4 (stereo not shown) [AB35488] | 5.27 | 2.02 |  | 
COc1ccc2c(c1OC)CN1CCc3cc4c(cc3C1=C2)OCO4 [AB36463] | 1.95 | 0.88 |  | 
COc1ccc2c(c1OC(=O)CC13CC4CC(CC(C4)C1)C3)C(C1CCCC1)N1CCc3cc4c(cc3C1=C2)OCO4 (stereo not shown) [AB35459] | 12.5 | 6.18 |  | 
COc1ccc2c(c1OCCCCCCNC(=O)OC(C)(C)C)C(C1CCCC1)N1CCc3cc4c(cc3C1=C2)OCO4 (stereo not shown) [AB35455] | 3.51 | 1.47 |  | 

Structure (SMILES) | IC50 (mPTP-active Daoy cell; Homo sapiens, Daoy) [µM] | IC50 (mPTP-inactive Daoy cell; Homo sapiens, Daoy) [µM] | IC50 (mPTP-active Daoy cell) [µM] | IC50 (mPTP-inactive Daoy cell) [µM]
COc1ccc2c(c1OC)C(C(Cl)(Cl)Cl)N1CCc3cc4c(cc3C1=C2Cc1ccccn1)OCO4 (stereo not shown) [AB35447] | 22.9 | 25.7 |  | 
CC1c2c(ccc3c2OCO3)C(CCCc2ccccc2)=C2c3cc4c(cc3CCN21)OCO4 (stereo not shown) [AB35427] | 3.27 | 1.49 |  | 
COc1ccc2c(c1OCCCCl)C(C)N1CCc3cc4c(cc3C1=C2)OCO4 (stereo not shown) [AB35456] | 5.77 | 2.76 |  | 
COc1ccc2c(c1OCCCCl)C(C1CCCCC1)N1CCc3cc4c(cc3C1=C2)OCO4 (stereo not shown) [AB35491] | 6.01 | 2.63 |  | 
COc1ccc2c(c1OCc1ccccc1-c1ccccc1)C(C(Cl)(Cl)Cl)N1CCc3cc4c(cc3C1=C2)OCO4 (stereo not shown) [AB35531] | 3.6 | 1.55 |  | 
COc1ccc2c(c1OC)C(c1ccncc1)N1CCc3cc4c(cc3C1=C2)OCO4 (stereo not shown) [AB36488] | 27 | 26.9 |  | 
COc1ccc2c(c1OC)C(C)N1CCc3cc4c(cc3C1=C2)OCCO4 (stereo not shown) [AB31898] | 9.54 | 4.43 |  | 
COc1ccc2c(c1OC/C=C(\C)CCC=C(C)C)C(C)N1CCc3cc4c(cc3C1=C2)OCO4 (stereo not shown) [AB35402] | 1.72 | 0.81 |  | 
COc1ccc2c(c1OCCCCCCCl)C(C(Cl)(Cl)Cl)N1CCc3cc4c(cc3C1=C2)OCO4 (stereo not shown) [AB35475] | 2.64 | 1.23 |  | 
COc1ccc2c(c1OC)C(C(Cl)(Cl)Cl)N1CCc3cc4c(cc3C1=C2CCCCCCCl)OCO4 (stereo not shown) [AB35524] | 4.04 | 1.9 |  | 
COc1ccc2c(c1OC)C(c1ccccc1)N1CCc3cc4c(cc3C1=C2)OCO4 (stereo not shown) [AB36467] | 12.1 | 4.63 |  | 
COc1ccc2c(c1OC)C(C(Cl)(Cl)Cl)N1CCc3cc4c(cc3C1=C2CCCCCCBr)OCO4 (stereo not shown) [AB35501] | 4.98 | 1.91 |  | 
CCCCCOc1c(OC)ccc2c1C(C(Cl)(Cl)Cl)N1CCc3cc4c(cc3C1=C2)OCO4 (stereo not shown) [AB35505] | 1.24 | 0.42 |  | 
COc1ccc2c(c1NCCc1ccccc1)C(C(Cl)(Cl)Cl)N1CCc3cc4c(cc3C1=C2)OCO4 (stereo not shown) [AB35486] | 0.71 | 0.23 |  | 
COc1ccc2c(c1OC)C(C1CCC1)N1CCc3cc4c(cc3C1=C2)OCO4 (stereo not shown) [AB36447] | 6.73 | 2.65 |  | 
CCCOc1c(OC)ccc2c1C(C1CCCC1)N1CCc3cc4c(cc3C1=C2)OCO4 (stereo not shown) [AB35512] | 4.27 | 1.57 |  | 
COc1ccc2c(c1OCCCCl)C(C1CCCC1)N1CCc3cc4c(cc3C1=C2)OCO4 (stereo not shown) [AB35434] | 5.21 | 2.48 |  | 
[2H]C1c2c(ccc(OC)c2OCCC)C=C2c3cc4c(cc3CCN21)OCO4 (stereo not shown) [AB36437] | 1.37 | 0.54 |  | 
COc1ccc2c(c1N1CCC(C(F)(F)F)CC1)C(C(Cl)(Cl)Cl)N1CCc3cc4c(cc3C1=C2)OCO4 (stereo not shown) [AB35514] | 3.42 | 1.33 |  | 
CCCCC1c2c(c(Br)cc(OC)c2OC)C=C2c3cc4c(cc3CCN21)OCO4 (stereo not shown) [AB31873] | 6.44 | 3.13 |  | 
COc1ccc2c(c1OC)C(C(Cl)(Cl)Cl)N1CCc3cc4c(cc3C1=C2CCCCc1ccccc1)OCO4 (stereo not shown) [AB35469] | 2.41 | 1.11 |  | 
CCCC1c2c(ccc3c2OCO3)C=C2c3cc4c(cc3CCN21)OCO4 (stereo not shown) [AB36416] | 3.78 | 1.44 |  | 
CCCCCCC1c2c(ccc3c2OCO3)C=C2c3cc4c(cc3CCN21)OCO4 (stereo not shown) [AB35426] | 2.71 | 1.03 |  | 

Structure (SMILES) | IC50 (mPTP-active Daoy cell; Homo sapiens, Daoy) [µM] | IC50 (mPTP-inactive Daoy cell; Homo sapiens, Daoy) [µM] | IC50 (mPTP-active Daoy cell) [µM] | IC50 (mPTP-inactive Daoy cell) [µM]
CCCC1=C2c3cc4c(cc3CCN2C(C2CCCC2)c2c1ccc1c2OCO1)OCO4 (stereo not shown) [AB36432] | 4.32 | 1.88 |  | 
COc1ccc2c(c1OCCCF)C(C)N1CCc3cc4c(cc3C1=C2)OCO4 (stereo not shown) [AB35485] | 16.3 | 5.27 |  | 
COc1ccc2c(c1OCCCCl)C(C(Cl)(Cl)Cl)N1CCc3cc4c(cc3C1=C2)OCO4 (stereo not shown) [AB35441] | 2.88 | 1.27 |  | 
CCCCCCCCC1=C2c3cc4c(cc3CCN2C(C(Cl)(Cl)Cl)c2c1ccc(OC)c2OC)OCO4 (stereo not shown) [AB35497] | 3.28 | 1.15 |  | 
COc1ccc2c(c1OC)C(n1cccc1)N1CCc3cc4c(cc3C1=C2)OCO4 (stereo not shown) [AB36520] | 16.1 | 16 |  | 
COc1ccc2c(c1OCCCCCCCl)C(C1CCCC1)N1CCc3cc4c(cc3C1=C2)OCO4 (stereo not shown) [AB35440] | 2.36 | 1.14 |  | 
COc1ccc2c(c1OCCNC(=O)OC(C)(C)C)C(C)N1CCc3cc4c(cc3C1=C2)OCO4 (stereo not shown) [AB35424] | 13.8 | 6.18 |  | 
COc1ccc2c(c1OC)C(C)N1CCc3cc4c(cc3C1=C2CCCc1ccccc1)OCO4 (stereo not shown) [AB35493] | 3.33 | 1.02 |  | 
COc1ccc2cc3n(c(=O)c2c1OC)CCc1cc2c(cc1-3)OCO2 [AB36496] | 86.3 | > 100 |  | 
COc1ccc2c(c1OC)CN1CCc3cc4c(cc3C1=C2Cc1ccc(C(C)C)cc1)OCO4 [AB31870] | 3.94 | 1.86 |  | 
COc1ccc2c(c1OCCCBr)C(C)N1CCc3cc4c(cc3C1=C2)OCO4 (stereo not shown) [AB31887] | 6.47 | 3.17 |  | 
COc1ccc2c(c1OCCCCCCBr)C(C1CCCC1)N1CCc3cc4c(cc3C1=C2)OCO4 (stereo not shown) [AB35458] | 3.85 | 1.84 |  | 
COc1ccc2c(c1OC)C(C)N1CCc3cc4c(cc3C1=C2CCCCc1ccccc1)OCO4 (stereo not shown) [AB35468] | 2.29 | 1.05 |  | 
COc1ccc2c(c1OC)C(C1CCCC1)N1CCc3cc4c(cc3C1=C2CCCCCCCl)OCO4 (stereo not shown) [AB35500] | 3.46 | 1.71 |  | 
C1=C2c3cc4c(cc3CCN2C(C2CCCC2)c2cc3c(cc21)OCO3)OCO4 (stereo not shown) [AB35467] | 16.1 | 8.21 |  | 
CCCCOc1c(OC)ccc2c1C(C(Cl)(Cl)Cl)N1CCc3cc4c(cc3C1=C2)OCO4 (stereo not shown) [AB35494] | 1.28 | 0.36 |  | 
CCCCCCOc1c(OC)ccc2c1C(C(Cl)(Cl)Cl)N1CCc3cc4c(cc3C1=C2)OCO4 (stereo not shown) [AB35487] | 1.77 | 0.47 |  | 
COc1ccc2c(c1OCCCBr)C(C(Cl)(Cl)Cl)N1CCc3cc4c(cc3C1=C2)OCO4 (stereo not shown) [AB35466] | 2.21 | 0.91 |  | 
CCCCCC1c2c(ccc3c2OCO3)C=C2c3cc4c(cc3CCN21)OCO4 (stereo not shown) [AB36433] | 1.92 | 0.58 |  | 
COc1ccc2c(c1OC)C(CC(C)=O)N1CCc3cc4c(cc3C1=C2)OCO4 (stereo not shown) [AB36472] | 15.8 | 15.9 |  | 
COc1ccc2c(c1OCCCBr)C(C1CCCC1)N1CCc3cc4c(cc3C1=C2)OCO4 (stereo not shown) [AB35430] | 5.07 | 2.38 |  | 
COc1ccc2c(c1OCCCCCCBr)C(C)N1CCc3cc4c(cc3C1=C2)OCO4 (stereo not shown) [AB31897] | 3.43 | 1.58 |  | 
